This is an account of results in ChEMBL document CHEMBL5724796, “Tm Shift (DSF) assay results for EUbOPEN Chemogenomics Library” (2024).

Molecules are shown by their SMILES. Residues, ends and D or L forms follow the SMILES beside them.

For one assay, the target named is T1, Peregrin (Homo sapiens) (UniProt P55201).
T1 sequence (whole entry): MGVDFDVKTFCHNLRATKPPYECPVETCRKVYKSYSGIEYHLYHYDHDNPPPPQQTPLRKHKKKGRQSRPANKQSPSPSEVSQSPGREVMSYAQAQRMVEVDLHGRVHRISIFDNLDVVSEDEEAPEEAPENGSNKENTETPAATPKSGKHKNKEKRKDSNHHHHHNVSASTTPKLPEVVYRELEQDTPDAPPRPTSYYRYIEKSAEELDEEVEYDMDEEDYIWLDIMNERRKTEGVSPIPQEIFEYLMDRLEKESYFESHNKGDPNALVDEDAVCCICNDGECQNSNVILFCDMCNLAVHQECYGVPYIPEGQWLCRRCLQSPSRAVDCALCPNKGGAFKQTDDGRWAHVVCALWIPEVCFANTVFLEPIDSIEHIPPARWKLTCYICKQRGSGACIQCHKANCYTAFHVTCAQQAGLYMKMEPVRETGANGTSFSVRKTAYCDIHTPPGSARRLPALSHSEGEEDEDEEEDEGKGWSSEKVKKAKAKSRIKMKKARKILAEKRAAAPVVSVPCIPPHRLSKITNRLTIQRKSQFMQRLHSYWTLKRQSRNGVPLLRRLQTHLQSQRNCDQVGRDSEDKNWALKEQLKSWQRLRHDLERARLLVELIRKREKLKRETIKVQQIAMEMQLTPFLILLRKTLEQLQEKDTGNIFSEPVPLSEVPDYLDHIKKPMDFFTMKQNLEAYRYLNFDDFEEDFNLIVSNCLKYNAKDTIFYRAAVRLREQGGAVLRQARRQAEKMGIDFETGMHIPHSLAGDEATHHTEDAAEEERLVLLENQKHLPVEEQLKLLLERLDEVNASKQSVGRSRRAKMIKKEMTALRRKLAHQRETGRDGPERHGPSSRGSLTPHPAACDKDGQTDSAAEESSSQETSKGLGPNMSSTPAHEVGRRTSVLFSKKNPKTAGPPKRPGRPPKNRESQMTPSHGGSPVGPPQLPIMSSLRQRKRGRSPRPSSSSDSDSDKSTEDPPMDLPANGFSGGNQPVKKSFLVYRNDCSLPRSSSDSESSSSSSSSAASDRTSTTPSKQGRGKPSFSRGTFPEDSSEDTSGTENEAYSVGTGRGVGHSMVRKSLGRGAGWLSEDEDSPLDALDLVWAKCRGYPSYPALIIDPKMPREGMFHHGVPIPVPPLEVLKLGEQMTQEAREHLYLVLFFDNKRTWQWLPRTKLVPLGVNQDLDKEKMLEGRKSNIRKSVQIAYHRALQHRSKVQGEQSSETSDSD
Particulars: Compound concentration 20.0 uM.

Assay [1] deals with Fibroblast growth factor receptor 2 (Homo sapiens) (UniProt P21802). Particulars: Compound concentration 20.0 uM.
Chain of Fibroblast growth factor receptor 2 (Homo sapiens) (P21802 22-821 limits assumed): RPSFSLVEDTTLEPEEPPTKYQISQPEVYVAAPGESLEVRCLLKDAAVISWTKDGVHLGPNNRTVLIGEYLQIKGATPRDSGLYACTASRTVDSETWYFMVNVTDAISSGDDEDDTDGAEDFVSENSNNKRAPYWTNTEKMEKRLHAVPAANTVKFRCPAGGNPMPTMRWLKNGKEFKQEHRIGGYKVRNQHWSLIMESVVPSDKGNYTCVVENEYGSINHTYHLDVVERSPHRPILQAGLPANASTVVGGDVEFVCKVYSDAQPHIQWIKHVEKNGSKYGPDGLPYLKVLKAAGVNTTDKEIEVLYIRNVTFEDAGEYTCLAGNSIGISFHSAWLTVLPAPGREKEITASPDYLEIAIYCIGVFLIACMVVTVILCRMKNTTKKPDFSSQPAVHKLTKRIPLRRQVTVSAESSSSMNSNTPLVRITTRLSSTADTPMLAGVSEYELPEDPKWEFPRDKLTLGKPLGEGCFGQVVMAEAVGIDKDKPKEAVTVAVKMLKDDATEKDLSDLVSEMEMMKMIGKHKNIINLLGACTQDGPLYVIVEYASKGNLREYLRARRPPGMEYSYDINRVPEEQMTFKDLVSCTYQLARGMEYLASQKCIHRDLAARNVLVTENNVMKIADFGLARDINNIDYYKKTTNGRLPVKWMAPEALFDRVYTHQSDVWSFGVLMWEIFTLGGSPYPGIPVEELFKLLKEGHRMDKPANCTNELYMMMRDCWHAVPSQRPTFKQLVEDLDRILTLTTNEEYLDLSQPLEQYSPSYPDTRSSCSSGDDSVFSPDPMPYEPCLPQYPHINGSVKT
Description: Thermal Shift Assay. Domain: start/stop: T457-E768

As to `C[C@]12O[C@H](C[C@]1(O)CO)n1c3ccccc3c3c4c(c5c6ccccc6n2c5c31)CNC4=O`, the ΔTm (in general, the shift of the melting midpoint relative to a reference) is -0.7 °C on Peregrin (Homo sapiens) and 5.19 °C in assay [1].
As for `CC(C)N(C(=O)c1cc(F)ccc1Oc1cncnc1N1CC2(CCN(C[C@H]3CC[C@H](NS(C)(=O)=O)CC3)CC2)C1)C(C)C`, the ΔTm at Peregrin (Homo sapiens) is 0.63 °C; in assay [1], -0.47 °C.
On the same counts, the results for `COc1cc2c(NC3CCN(C)CC3)nc(N3CCCN(C)CC3)nc2cc1OCCCN(C)C` are -1.21 °C and 0.15 °C.
For `CC(C)=C[C@H]1C[C@H](C)[C@]2(CC[C@]3(C)C[C@H]4[C@H](C(=O)C[C@@]4(C)O)/C(C=O)=C\C[C@H]32)O1`, the results for the shift in melting temperature (ΔTm) (on Peregrin (Homo sapiens); in assay [1]) were -0.47 °C and 0.16 °C, respectively.
With `N#Cc1ccc(-c2csc(NN=C3CCCC3)n2)cc1`, the thermal shift (ΔTm) at Peregrin (Homo sapiens) is -0.85 °C; in assay [1], 0.36 °C.
On the same counts, the results for `CC(C)c1ccc(C(=O)N=C(N)N)cc1S(C)(=O)=O` are -0.14 °C and -0.34 °C.
Consider `CNCC[C@@H](Oc1ccccc1C)c1ccccc1`, for which the ΔTm is -1.53 °C at Peregrin (Homo sapiens) and 0.34 °C in assay [1].
Turning to `O=C(c1ccc2c(ccn2-c2ccc(F)cc2)c1)N1CC(N2CCN(C(=O)c3nccs3)CC2)C1`, the thermal shift (ΔTm) was -2.53 °C on Peregrin (Homo sapiens) and -0.43 °C in assay [1].
For `COc1cc(O)cc(CN2CCc3c(cc(Cn4ccn(C)c4=N)cc3-c3ccc(F)cc3C)C2=O)c1` the same measures were -1.15 °C and -1.31 °C.
For `CC(C)NCC(O)COC(Cn1c2ccccc2c2ccccc21)Cn1c2ccccc2c2ccccc21` (stereo not given) the same measures were -1.15 °C and 0.48 °C.
Take `CCc1nc2c(C)cc(N3CCN(CC(=O)N4CC(O)C4)CC3)cn2c1N(C)c1nc(-c2ccc(F)cc2)c(C#N)s1`: the results for the shift in melting temperature (ΔTm) (on Peregrin (Homo sapiens); in assay [1]) were -0.12 °C and 0.26 °C, respectively.
In the case of `C[C@H](Nc1nc2c(cnn2C2CCCC2)c(=O)[nH]1)c1ccc(Cl)cc1`, the thermal shift (ΔTm) at Peregrin (Homo sapiens) was 1.99 °C; in assay [1] it was 0.2 °C.
For `CNC(=O)c1cc(Nc2ccnc(Nc3ccc(CCNC(=O)OC(C)(C)C)cc3)n2)n[nH]1` the same measures were -1.87 °C and 0.64 °C.
For `CN(C)CCCN(CC[C@H](N)C(=O)O)C[C@H]1O[C@@H](n2cnc3c(N)ncnc32)[C@H](O)[C@@H]1O` the same measures were -1.18 °C and -1.19 °C.
On the same counts, the results for `O=C(N1CCCC[C@@H]1Cc1ccccc1)n1cc(-c2ccc(-c3ccccc3)cc2)nn1` are 0.6 °C and 0 °C.
`COc1cc2c(NC3CCN(C)CC3)cc(-c3ccc(C)o3)nc2cc1OCCCN1CCCC1`: the ΔTm on Peregrin (Homo sapiens) was -0.96 °C; in assay [1] it was 0.85 °C.
For `Cn1c(=O)cc(N2CCC[C@@H](N)C2)n(Cc2ccccc2C#N)c1=O` the same measures were 2.35 °C and 0.81 °C.
`O=C(Nc1ccccc1C(=O)O)c1cc(S(=O)(=O)c2ccccc2)ccc1Cl`: the ΔTm at Peregrin (Homo sapiens) is 0.95 °C; in assay [1], -0.48 °C.
As to `CSCC[C@H](NC(=O)[C@H](CC(=O)O)NC(C)=O)C(=O)N[C@@H](CCC(N)=O)C(=O)N[C@H](C=O)CC(=O)O` (Ac-DMQD-aldehyde), the ΔTm was -1.78 °C at Peregrin (Homo sapiens) and 0.77 °C in assay [1].
For `CC(=O)N[C@@H](CCCCNC(=O)CSCCNC(=O)CCNC(=O)[C@H](O)C(C)(C)COP(=O)(O)OP(=O)(O)OC[C@H]1O[C@@H](n2cnc3c(N)ncnc32)[C@H](O)[C@@H]1OP(=O)(O)O)C(N)=O` the same measures were 1.95 °C and 0.51 °C.
For `C=CC(=O)Nc1cccc(-c2c[nH]cc2CN(C)CCN)c1` the same measures were -1.04 °C and 0.24 °C.
`C[C@@H](COCCC(=O)N1CCN(c2ncc(C(F)(F)F)cn2)CC1)Nc1cn[nH]c(=O)c1C(F)(F)F`: the values for the ΔTm (at Peregrin (Homo sapiens); in assay [1]) were 0.01 °C and 0.24 °C, respectively.
On the same counts, the results for `O=[N+]([O-])c1ccc(CSc2ncnc3c2ncn3[C@@H]2O[C@H](CO)[C@@H](O)[C@H]2O)cc1` are 1.12 °C and 0.22 °C.
Turning to `COc1ccccc1[C@H]1[C@H](C(=O)O)[C@H](c2ccccc2OC)[C@H]1C(=O)Oc1cccc2ccccc12`, the ΔTm on Peregrin (Homo sapiens) is 0.27 °C; in assay [1] it was -0.72 °C.
`O=C1C(P(=O)(O)O)CC(O)N1O` (stereo not given): the shift in melting temperature (ΔTm) is 1.52 °C at Peregrin (Homo sapiens) and -0.05 °C in assay [1].
For `CCNC(=O)/C=C/c1cccc(Br)c1` the same measures were -1.37 °C and -0.4 °C.
Regarding `COc1cc(-c2cn(C)c(=O)c3cnccc23)cc(OC)c1CN(C)CC(=O)NCCOCCOCCNc1cccc2c1C(=O)N(C1CCC(=O)NC1=O)C2=O` (stereo not given), the ΔTm at Peregrin (Homo sapiens) is -0.56 °C; in assay [1], 0.52 °C.
For `CC(C)C(=O)c1c(C(C)C)nn2ccccc12` the same measures were 0.32 °C and -0.49 °C.
On the same counts, the results for `CC(=O)OCCN1C(=O)c2c(C)nc3ccc(S(=O)(=O)N4CCOCC4)cc3c2C1=O` are -0.89 °C and 0.68 °C.
Consider `Cc1nc2ccccn2c1C(=O)CN1CCN(c2ccc(F)cn2)CC1`, for which the thermal shift (ΔTm) on Peregrin (Homo sapiens) is 0.49 °C; in assay [1], -0.08 °C.
As for `COc1ccc(CC[C@H]2CCC[C@@H](CCc3ccc(OC)cc3)N2C[C@@H](O)CO)cc1`, the shift in melting temperature (ΔTm) on Peregrin (Homo sapiens) was 0.69 °C; in assay [1], -0.53 °C.
On the same counts, the results for `C[C@H](CN[C@@H](C(=O)Nc1ccc(-c2cnn(C)c2)cn1)c1ccccc1)c1ccc(C#N)cc1` are -3.43 °C and 0.96 °C.
On the same counts, the results for `CCCOc1cc(OCCCCN(C)C)cc(Oc2cc3c(cc2NS(=O)(=O)c2ccc(OC)c(OC)c2)n(C)c(=O)n3C)c1` are 9.12 °C and 0.62 °C.
For `Cn1ncnc1[C@H]1C2=c3c(cc(F)cc3=N[C@@H]1c1ccc(F)cc1)C(=O)NN2` the same measures were 3.07 °C and 0.09 °C.
As to `Cc1ccc(C)c(-n2sc3cc(F)ccc3c2=O)c1`, the ΔTm was -11.8 °C at Peregrin (Homo sapiens) and -0.26 °C in assay [1].
Consider `CC(=O)C(=Cc1cc(O)c(O)c([N+](=O)[O-])c1)C(C)=O`, for which the ΔTm on Peregrin (Homo sapiens) was 0.33 °C; in assay [1], -0.23 °C.
For `COc1cccc(-c2nccc3c2CN(c2ccccc2)C3=O)c1` the same measures were -0.63 °C and 0.77 °C.
On the same counts, the results for `Cc1cc(C)nc(SCC(=O)Nc2ncc(Cc3cccc4ccccc34)s2)n1` are 3 °C and -1.85 °C.
For `CC(C)Nc1cc(-c2c[nH]c(C(=O)N[C@H](CO)c3cccc(Cl)c3)c2)c(Cl)cn1` the same measures were 0.61 °C and 0.33 °C.
Consider `CCn1nc(C2CC2)cc1Nc1nc(C(=O)NC)nc2[nH]c3cc(-c4c(C)noc4C)c(OC)cc3c12`, for which the ΔTm at Peregrin (Homo sapiens) is 0.68 °C; in assay [1], -0.1 °C.
For `Cc1ccc(NC2=CC(=O)c3sc(C)nc3C2=O)cc1` the same measures were -1.72 °C and -0.13 °C.
With `CN(C)CCCNC(=O)c1ccc(-c2cc(O)c3ncccc3c2)cc1`, the thermal shift (ΔTm) was -1.48 °C on Peregrin (Homo sapiens) and 0.49 °C in assay [1].
On the same counts, the results for `C/C=C1\NC(=O)[C@H]2CSSCC/C=C/[C@H](CC(=O)N[C@H](C(C)C)C(=O)N2)OC(=O)[C@H](C(C)C)NC1=O` are 0 °C and 0.1 °C.
On the same counts, the results for `c1ccc(Cn2c(-c3ccc(OC[C@H](C4CCNCC4)n4c(-c5ccccc5)nc5ccccc54)cc3)nc3ccccc32)cc1` are -5.25 °C and -8.18 °C.
Regarding `O=C(c1cc(Cl)c(O)c(Cl)c1)N1CS(=O)(=O)c2ccccc21`, the figures for the thermal shift (ΔTm) (on Peregrin (Homo sapiens); in assay [1]) were 1.35 °C and 0.39 °C, respectively.
